Measurements taken from US12077503B2, “Substituted cyclic amides and their use as herbicides” (FMC CORPORATION, priority 2015, dated 2024).

Key:
Format in all cases: in vivo
[1] = tested on: pigweed (Amaranthus retroflexus); assay: Test A preemergence; conditions: Preemergence
[2] = tested on: giant foxtail (Setaria faberii); assay: Test A preemergence; conditions: Preemergence
Procedure, shortened: (§1)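 Seeds sprayed preemergence with a directed soil spray, or plants at 2 to 10 cm height and one- to two-leaf stage sprayed postemergence, with test chemicals in a non-phytotoxic solvent mixture containing surfactant, in loam soil–sand blend. Injury rated visually against untreated controls after about 10 d in greenhouse, 0 (no effect) to 100 (complete control).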

[3] = tested on: Kochia (Kochia scoparia); assay: Test A preemergence; conditions: Preemergence
Procedure, shortened: as §1

[4] = tested on: barnyardgrass (Echinochloa crus-galli); assay: Test A preemergence; conditions: Preemergence
Procedure, shortened: as §1

[5] = tested on: ryegrass, Italian (Italian ryegrass, Lolium multiflorum); assay: Test A preemergence; conditions: Preemergence
Procedure, shortened: as §1

[6] = tested on: ragweed (common ragweed, Ambrosia elatior); assay: Test A preemergence; conditions: Preemergence
Procedure, shortened: as §1

[7] = tested on: blackgrass (Alopecurus myosuroides); assay: Test A postemergence
Procedure, shortened: as §1

[8] = tested on: corn (Zea mays); assay: Test A postemergence
Procedure, shortened: as §1

[9] = tested on: pigweed (Amaranthus retroflexus); assay: Test A postemergence
Procedure, shortened: as §1

[10] = tested on: giant foxtail (Setaria faberii); assay: Test A postemergence
Procedure, shortened: as §1

[11] = tested on: Kochia (Kochia scoparia); assay: Test A postemergence
Procedure, shortened: as §1

[12] = tested on: Galium (catchweed bedstraw, Galium aparine); assay: Test A postemergence
Procedure, shortened: as §1

[13] = tested on: barnyardgrass (Echinochloa crus-galli); assay: Test A postemergence
Procedure, shortened: as §1

[14] = tested on: ryegrass, Italian (Italian ryegrass, Lolium multiflorum); assay: Test A postemergence
Procedure, shortened: as §1

[15] = tested on: wheat (Triticum aestivum); assay: Test A postemergence
Procedure, shortened: as §1

[16] = tested on: ragweed (common ragweed, Ambrosia elatior); assay: Test A postemergence
Procedure, shortened: as §1

[17] = tested on: sedge, umbrella (small-flower umbrella sedge, Cyperus difformis); assay: Test B flooded paddy test; conditions: Flood, 250 g ai/ha; 0 to 100 scale where 0 is no effect and 100 is complete control; 13 to 15 d
Procedure, shortened: (§2)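 Flooding to 3 cm over soil accompanied treatment, which consisted of adding compound to the standing water around 2-leaf plants; depth was then maintained. Visual assessment versus controls followed at 13 to 15 d (scale 0–100, 0 meaning no effect).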

[18] = tested on: rice (Oryra sativa); assay: Test B flooded paddy test; conditions: Flood, 250 g ai/ha; 0 to 100 scale where 0 is no effect and 100 is complete control; 13 to 15 d
Procedure, shortened: as §2

[19] = tested on: barnyardgrass (Echinochloa crus-galli); assay: Test B flooded paddy test; conditions: Flood, 250 g ai/ha; 0 to 100 scale where 0 is no effect and 100 is complete control; 13 to 15 d
Procedure, shortened: as §2

[20] = tested on: ducksalad (Heteranthera limosa); assay: Test B flooded paddy test; conditions: Flood, 250 g ai/ha; 0 to 100 scale where 0 is no effect and 100 is complete control; 13 to 15 d
Procedure, shortened: as §2

[21] = 125 g ai/ha, visual injury after approximately 10 d, 0 to 100 scale where 0 is no effect and 100 is complete control
[22] = 500 g ai/ha, visual injury approx. 10 d
[23] = 125 g ai/ha, postemergence, visual rating after approx. 10 d, 0 to 100 scale (0 no effect, 100 complete control)
[24] = Postemergence, 500 g ai/ha, 0 to 100 scale where 0 is no effect and 100 is complete control

O=C1NCC(c2cc(F)c(F)cc2F)C1C(=O)Nc1ccccc1F (racemic) [Compound 549]
40: Plant response rating, Barnyardgrass [4, 21] | Plant response rating, Barnyardgrass [13, 23]
25: Plant response rating, Barnyardgrass [19]
0: Plant response rating, Pigweed [1, 21] | Pigweed plant response rating (0 to 100 scale, 0 is no effect, 100 is complete control) [1, 22] | Plant response rating, Kochia [3, 21] | Kochia plant response rating (0 to 100 scale, 0 is no effect, 100 is complete control) [3, 22] | Plant response rating, Ryegrass, Italian [5, 21] | Ryegrass, Italian plant response rating (0 to 100 scale, 0 is no effect, 100 is complete control) [5, 22] | Plant response rating, Ragweed [6, 21] | Ragweed plant response rating (0 to 100 scale, 0 is no effect, 100 is complete control) [6, 22] | Plant response rating, Blackgrass [7, 23] | Plant response rating, Corn [8, 23] | Plant response rating, Corn [8, 24] | Plant response rating, Pigweed [9, 23] | Plant response rating, Pigweed [9, 24] | Plant response rating, Kochia [11, 23] | Plant response rating, Galium [12, 23] | Plant response rating, Galium [12, 24] | Plant response rating, Ryegrass, Italian [14, 23] | Plant response rating, Ryegrass, Italian [14, 24] | Plant response rating, Wheat [15, 23] | Plant response rating, Ragweed [16, 23] | Plant response rating, Ragweed [16, 24] | Plant response rating, Sedge, Umbrella [17] | Plant response rating, Rice [18]
80: Barnyardgrass plant response rating (0 to 100 scale, 0 is no effect, 100 is complete control) [4, 22]
20: Plant response rating, Blackgrass [7, 24] | Plant response rating, Foxtail, Giant [10, 23] | Plant response rating, Kochia [11, 24] | Plant response rating, Wheat [15, 24]
90: Plant response rating, Foxtail, Giant [2, 21] | Foxtail, Giant plant response rating (0 to 100 scale, 0 is no effect, 100 is complete control) [2, 22] | Plant response rating, Foxtail, Giant [10, 24] | Plant response rating, Barnyardgrass [13, 24] | Plant response rating, Ducksalad [20]
